Laboratory results from patent publication US11613526B2, “Thiophene derivatives” (priority 2018, dated 2023).

Tests used:
HIF2a (240-350)-G = target: T1, HIF2a (240-350)-G (Homo sapiens, UniProt Q99814); assay: ITC; format: binding
T1 construct: The protein, HIF2a (240-350)-G, was prepared by recombinant overexpression; made in house
Protocol: ITC measurements were performed with a VP-ITC microcalorimeter from MicroCal/Malvern (UK). For all titration experiments the protein and the respective compounds were formulated in 30 mM HEPES buffer pH 7.5, 150 mM NaCl and 5 mM ß-mercaptoethanol. The protein, HIF2a (240-350)-G, was prepared by recombinant overexpression and multistep chromatography purification. Compounds were used from concentrated DMSO stock solutions. The final protein concentration in the injection syringe was 100 μM. Ligand stock solutions of 10 mM in DMSO were diluted to 10 μM concentrations with buffer and loaded into the sample cell. All buffers were adjusted to a final concentration of 1% (v/v) DMSO. Both, the titrate and titrant solutions were degassed prior to loading the calorimeter cell and injection syringe. […] The integrated heat data were fit with a one-site binding model to determine the apparent values for affinity, enthalpy and stoichiometry of binding.

[1] = target: T2, interaction of the PAS B domains of HIF-2α and HIF-1β (Homo sapiens, UniProt Q99814); assay: Alphascreen protein protein interaction assay; format: biochemical
T2 construct: His6Gb1-TEV-GEFKGL-HIF2α (240-350aa)-G
T2 sequence (Q99814 240-350): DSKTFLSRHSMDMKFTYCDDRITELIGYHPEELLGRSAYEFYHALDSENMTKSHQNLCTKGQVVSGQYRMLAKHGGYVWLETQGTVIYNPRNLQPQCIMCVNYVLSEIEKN
Protocol: Alphascreen Protein Protein Interaction Assay:
For the assessment of functional disruption of the interaction of the PAS B domains of HIF-2α and HIF-1β an AlphaScreen assay was set-up. The assay was performed in 384 well light gray Perkin Elmer microtiter plates in a total volume of 7 μl. […] The detection of the protein protein interaction was performed by adding AlphaLISA® Anti-FLAG Acceptor beads (fc 20 μg/ml) and AlphaScreen® Nickel Chelate Donor beads (fc 9 μg/ml) (both Perkin Elmer) and the reaction was incubated for 240 min at 23° C. in the dark. If donor and acceptor beads get in close proximity to each other caused by interaction of HIF2alpha PAS B with HIF-1ß PAS B domain it results in a luminescence signal at 615 nm after excitation at 680 nm. The PPI disruption activity of a compound was calculated directly from the loss in Alphascreen signal. The AlphaScreen signal was measured with an Envision multimode reader (Perkin Elmer LAS Germany GmbH). The control value used was the inhibitor-free reaction. The pharmacological zero value used was determined in the absence of HIF-11. The inhibitory values (IC50) were calculated using Assay analyser from GeneData.

[2] = test system: HIF2α-HIF1β activity in 786-O HRE-luc2P cells; assay: Cellular mechanistic assay: 786-O HRE-luc2P reporter assay; format: cell-based; conditions: Homo sapiens, 786-0, 48 h, read-out: HRE-luc2P reporter assay IC50
Protocol: This reporter assay was designed to monitor binding of the HIF2α-HIF1β complex to specific DNA fragment called hypoxia response element (HRE) in physiologically relevant cell line. […] HRE is present in promoters of various genes regulated by hypoxia inducible factors. […] As a result, this reporter assay allows monitoring of HIF2α-HIF1β activity by determining the activity of produced luciferase. Cell culture is performed in RPMI media supplemented with 10% FBS, Sodium Pyruvate, Penicillin/Streptomycin, Glutamine, 200 μg/ml Hygromycin Gold.
The assay was performed in 384 well white, opaque microtiterplate with transparent bottom (Greiner Bio-one, Frickenhausen). […] 50 μl of cell suspension (2000 cells) per well were dispensed in microtiter plates and incubated over night at 37° C. in a 5% CO2 incubator. Compounds were added with Labcyte Echo dispenser (fc 0.2% DMSO, 9 concentrations dilution raw starting at 10 μM). Plates were incubated for 48 h at 37° C. in a 5% CO2 incubator. After this 45 μl of pre-warmed ONE-Glo™ EX Reagent were added per well. Plates were placed on an orbital shaker at 1200 rpm for 3 minutes. Plates were sealed and luminescence was measured a Tecan Spark 20M microplate reader (end-point measurement with 0.1 second reading time). Values were normalized to DMSO ctrl and wells without cells (only medium ctrl). Decrease in luminescence directly correlates with inhibition of HIF2α activity. IC50 values and % effect values were calculated by GraphPad Prism.

T1 sequence (Q99814 240-350): as above

SMILES	Kd (HIF2a (240-350)-G) [nM]	IC50 [1] [nM]	IC50 [2] [nM]
CS(=O)(=O)c1sc(-c2ccccc2)c2c1[C@H](O)C(F)(F)C2 [Example 25a, (4S)-5,5-difluoro-3-methanesulfonyl-1-phenyl-4H,6H-cyclopenta[c]thiophen-4-ol]	> 1000	> 1000	–
CS(=O)(=O)c1sc(-c2ccccc2F)c2c1[C@H](O)C(F)(F)C2 [Example 27a, (4S)-5,5-difluoro-1-(2-fluorophenyl)-3-methanesulfonyl-4H,6H-cyclopenta[c]thiophen-4-ol]	> 1000	> 1000	–
CS(=O)(=O)c1sc(-c2cccc(F)c2)c2c1[C@H](O)C(F)(F)C2 [Example 28a, (4S)-5,5-difluoro-1-(3-fluorophenyl)-3-methanesulfonyl-4H,6H-cyclopenta[c]thiophen-4-ol]	> 1000	> 1000	–
Cn1cc(-c2sc(S(C)(=O)=O)c3c2CC(F)(F)[C@H]3O)cn1 [Example 35a, (4S)-5,5-difluoro-3-methanesulfonyl-1-(1-methyl-1H-pyrazol-4-yl)-4H,5H,6H-cyclopenta[c]thiophen-4-ol]	–	> 1000	–
CS(=O)(=O)c1sc(-c2ccccc2)c2c1[C@H](O)CCC2 [Example 36a, (4R)-3-methanesulfonyl-1-phenyl-4,5,6,7-tetrahydro-2-benzothiophen-4-ol]	–	> 1000	> 1000
CS(=O)(=O)c1sc(-c2cccc(F)c2)c2c1[C@H](O)C(F)(F)CC2 [Example 37a, (4S)-5,5-difluoro-1-(3-fluorophenyl)-3-methanesulfonyl-6,7-dihydro-4H-2-benzothiophen-4-ol]	> 1000	> 1000	> 1000
Cc1nn(C)cc1-c1sc(S(C)(=O)=O)c2c1CCC(F)(F)[C@H]2O [Example 39a, (4S)-1-(1,3-dimethyl-1H-pyrazol-4-yI)-5,5-difluoro-3-methanesulfonyl-4,5,6,7-tetrahydro-2-benzothiophen-4-ol]	–	> 1000	–
Cn1cc(-c2sc(S(C)(=O)=O)c3c2CCC(F)(F)[C@H]3O)cn1 [Example 40a, (4S)-5,5-difluoro-3-methanesulfonyl-1-(1-methyl-1H-pyrazol-4-yl)-4,5,6,7-tetrahydro-2-benzothiophen-4-ol]	–	> 1000	–
Cn1nc(C(F)(F)F)cc1-c1sc(S(C)(=O)=O)c2c1CCC(F)(F)[C@H]2O [Example 46a, (4S)-5,5-difluoro-3-methanesulfonyl-1-[1-methyl-3-(trifluoromethyl)-1H-pyrazol-5-yl]-4,5,6,7-tetrahydro-2-benzothiophen-4-ol]	–	> 1000	> 1000
Cn1nccc1-c1sc(S(C)(=O)=O)c2c1CC(F)(F)[C@H]2O [Example 47a, (4S)-5,5-difluoro-3-methanesulfonyl-1-(1-methyl-1H-pyrazol-5-yl)-4H,5H,6H-cyclopenta[c]thiophen-4-ol]	–	> 1000	> 1000
Cn1nc(C(F)(F)F)cc1-c1sc(S(C)(=O)=O)c2c1CC(F)(F)[C@H]2O [Example 48a, (4S)-5,5-difluoro-3-methanesulfonyl-1-[1-methyl-3-(trifluoromethyl)-1H-pyrazol-5-yl]-4H,5H,6H-cyclopenta[c]thiophen-4-ol]	–	> 1000	> 1000
Cc1cc(-c2sc(S(C)(=O)=O)c3c2CC(F)(F)[C@H]3O)n(C)n1 [Example 49a, (4S)-1-(1,3-dimethyl-1H-pyrazol-5-yl)-5,5-difluoro-3-methanesulfonyl-4H,5H,6H-cyclopenta[c]thiophen-4-ol]	–	> 1000	–
Cc1cc(-c2sc(S(C)(=O)=O)c3c2CCC(F)(F)[C@H]3O)n(C)n1 [Example 50a, (4S)-1-(1,3-dimethyl-1H-pyrazol-5-yl)-5,5-difluoro-3-methanesulfonyl-4,5,6,7-tetrahydro-2-benzothiophen-4-ol]	–	> 1000	–
Cn1nc(C#N)cc1-c1sc(S(C)(=O)=O)c2c1CCC(F)(F)[C@H]2O [Example 51a, 5-[(4S)-5,5-difluoro-4-hydroxy-3-methanesulfonyl-4,5,6,7-tetrahydro-2-benzothiophen-1-yl]-1-methyl-1H-pyrazole-3-carbonitrile]	–	> 1000	–
Cn1nc(-c2sc(S(C)(=O)=O)c3c2CCC(F)(F)[C@H]3O)cc1C#N [Example 54a, 3-[(4S)-5,5-difluoro-4-hydroxy-3-methanesulfonyl-4,5,6,7-tetrahydro-2-benzothiophen-1-yl]-1-methyl-1H-pyrazole-5-carbonitrile]	–	> 1000	> 1000
CS(=O)(=O)c1sc(-c2cncc(Cl)c2)c2c1[C@H](O)C(F)(F)CC2 [Example 56a, (4S)-1-(5-chloropyridin-3-yl)-5,5-difluoro-3-methanesulfonyl-4,5,6,7-tetrahydro-2-benzothiophen-4-ol]	–	50 to 1000	> 1000
Cc1cncc(-c2sc(S(C)(=O)=O)c3c2CCC(F)(F)[C@H]3O)c1 [Example 57a, (4S)-5,5-difluoro-3-methanesulfonyl-1-(5-methylpyridin-3-yl)-4,5,6,7-tetrahydro-2-benzothiophen-4-ol]	–	> 1000	–
CS(=O)(=O)c1sc(-c2cncc(F)c2)c2c1[C@H](O)C(F)(F)CC2 [Example 58a, (4S)-5,5-difluoro-1-(5-fluoropyridin-3-yl)-3-methanesulfonyl-4,5,6,7-tetrahydro-2-benzothiophen-4-ol]	–	> 1000	–
CS(=O)(=O)c1sc(-c2cncc(C#N)c2)c2c1[C@H](O)C(F)(F)CC2 [Example 59a, 5-[(4S)-5,5-difluoro-4-hydroxy-3-methanesulfonyl-4,5,6,7-tetrahydro-2-benzothiophen-1-yl]pyridine-3-carbonitrile]	–	> 1000	–
CS(=O)(=O)c1sc(-c2cnc(Cl)c(F)c2)c2c1[C@H](O)C(F)(F)CC2 [Example 61a, (4S)-1-(6-chloro-5-fluoropyridin-3-yl)-5,5-difluoro-3-methanesulfonyl-4,5,6,7-tetrahydro-2-benzothiophen-4-ol]	–	50 to 1000	> 1000
CS(=O)(=O)c1sc(-c2cncc(C(F)(F)F)c2)c2c1[C@H](O)C(F)(F)CC2 [Example 62a, (4S)-5,5-difluoro-3-methanesulfonyl-1-[5-(trifluoromethyl)pyridin-3-yl]-4,5,6,7-tetrahydro-2-benzothiophen-4-ol]	–	50 to 1000	> 1000
CS(=O)(=O)c1sc(-c2cc(F)nc(Cl)c2)c2c1[C@H](O)C(F)(F)CC2 [Example 63a, (4S)-1-(2-chloro-6-fluoropyridin-4-yl)-5,5-difluoro-3-methanesulfonyl-4,5,6,7-tetrahydro-2-benzothiophen-4-ol]	50 to 1000	< 50	> 1000
COc1ncc(-c2sc(S(C)(=O)=O)c3c2CCC(F)(F)[C@H]3O)cc1Cl [Example 65a, (4S)-1-(5-chloro-6-methoxypyridin-3-yl)-5,5-difluoro-3-methanesulfonyl-4,5,6,7-tetrahydro-2-benzothiophen-4-ol]	–	> 1000	–
